The values below come from paper PMC6497469 (Infection and Drug Resistance, 2019).

Assay [1] addresses T1, PA0847 (Pseudomonas aeruginosa, UniProt Q9I594).
T1 sequence (Q9I594 440-735 limits assumed): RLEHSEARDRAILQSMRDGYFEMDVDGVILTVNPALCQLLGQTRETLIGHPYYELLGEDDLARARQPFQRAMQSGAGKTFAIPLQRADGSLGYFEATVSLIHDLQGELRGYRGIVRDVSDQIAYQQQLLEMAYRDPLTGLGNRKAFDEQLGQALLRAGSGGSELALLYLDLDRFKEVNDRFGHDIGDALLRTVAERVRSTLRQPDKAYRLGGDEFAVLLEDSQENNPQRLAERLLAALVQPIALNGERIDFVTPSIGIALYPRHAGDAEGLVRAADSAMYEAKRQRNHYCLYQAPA
In words: binding of c-di-GMP to purified PAS-GGDEF.

Assay [2] has as its target PA0847 PAS-GGDEF dual domains (Pseudomonas aeruginosa PAO1). The assay can be described thus: SEC. (In general: Size exclusion chromatography separates by hydrodynamic size, large species first.)
The target of assay [3] is T1, PA0847. The assay can be described thus: titration of GTPγS to purified PAS-GGDEF. The format is binding.

`Nc1nc2c(ncn2[C@@H]2O[C@@H]3CO[P@](=O)(O)O[C@H]4[C@@H](O)[C@H](n5cnc6c(=O)[nH]c(N)nc65)O[C@@H]4CO[P@](=O)(O)O[C@H]3[C@H]2O)c(=O)[nH]1` [c-di-GMP]: the Kd (usually the constant that tells how readily two partners part at equilibrium) on PA0847 [1] is approximately 59 µM.
As to “PA0847 PAS-GGDEF dual domains (domain or fragment)”, the stoichiometry N (commonly a count of units in the complex or per binding partner) in assay [2] is 2.
`Nc1nc2c(ncn2[C@@H]2O[C@H](COP(=O)(O)OP(=O)(O)OP(O)(O)=S)[C@@H](O)[C@H]2O)c(=O)[nH]1` [GTPγS] came in with a Kd at PA0847 [3] of 15.3 ± 1.3 µM.
